Measurements published in patent publication US20260234144A1 (TAY THERAPEUTICS LIMITED, priority 2023, published 2026).

Tested on: R223X stop codon in the mutated luciferase gene, ADXC8 luciferase reporter cell line
Assay: cells
Format: cell-based
Conditions: ADXC8 cells, 24 hours; for Emax / EC (100% of 200 uM G418 response): 24 h; for Emax: read-out: Fold Over Control, maximum fold response relative to 200 μM G418; for EC (100% of 200 uM G418 response): read-out: pC100%, negative logarithm of the concentration giving the same response as 200 μM G418; for pC100%: negative logarithm of the concentration giving the same response as 200 μM G418

| Compound | Emax [%] | EC (100% of 200 uM G418 response) [µM] | pC100% | Fold Over Control (maximum fold response relative to 200 μM G418) |
| --- | --- | --- | --- | --- |
| Cc1cc(C)c2c(N)nc(NC3CCN(Cc4c(C)cccc4C)CC3)nc2n1 [Example 468] | 100 to 3000 | 1 to 10 | – | – |
| Cc1cc(C)c2c(N)nc(NC3CCN(Cc4cc[nH]n4)CC3)nc2n1 [Example 469] | 100 to 3000 | 10 to 100 | – | – |
| Cc1cc(C)c2c(N)nc(NC3CCN(Cc4c(Cl)cccc4Cl)CC3)nc2n1 [Example 470] | 100 to 3000 | 1 to 10 | – | – |
| Cc1cc(C)c2c(N)nc(NC3CCN(Cc4ccccn4)CC3)nc2n1 [Example 471] | 100 to 3000 | 1 to 10 | – | – |
| Cc1cc(C)c2c(N)nc(NC3CCN(Cc4cocn4)CC3)nc2n1 [Example 472] | 100 to 3000 | 1 to 10 | – | – |
| Cc1cc(C)c2c(N)nc(NC3CCN(Cc4ncco4)CC3)nc2n1 [Example 473] | 100 to 3000 | 10 to 100 | – | – |
| Cc1cc(C)c2c(N)nc(NC3CCN(Cc4cnco4)CC3)nc2n1 [Example 474] | 100 to 3000 | 10 to 100 | – | – |
| CNC(=O)c1ccc(CN2CCC(Nc3nc(N)c4c(C)cc(C)nc4n3)CC2)cc1 [Example 475] | 100 to 3000 | 10 to 100 | – | – |
| Cc1cc(C)c2c(N)nc(NC3CCN(Cc4ccc(C(N)=O)cc4)CC3)nc2n1 [Example 476] | 100 to 3000 | 10 to 100 | – | – |
| CNC(=O)c1cccc(CN2CCC(Nc3nc(N)c4c(C)cc(C)nc4n3)CC2)c1 [Example 477] | 100 to 3000 | 10 to 100 | – | – |
| COc1ccc(CN2CCC(Nc3nc(N)c4c(C)cc(C)nc4n3)CC2)cc1 [Example 478] | 100 to 3000 | 0.1 to 1 | – | – |
| Cc1cc(C)c2c(N)nc(NC3CCN(Cc4c(F)cccc4F)CC3)nc2n1 [Example 479] | 100 to 3000 | 1 to 10 | – | – |
| CC(=O)Nc1cccc(CN2CCC(Nc3nc(N)c4c(C)cc(C)nc4n3)CC2)c1 [Example 480] | 100 to 3000 | 10 to 100 | – | – |
| Cc1cc(C)c2c(N)nc(NC3CCN(Cc4ccc(CO)cc4)CC3)nc2n1 [Example 481] | 100 to 3000 | 1 to 10 | – | – |
| Cc1cc(C)c2c(N)nc(NC3CCN(Cc4cccc(CO)c4)CC3)nc2n1 [Example 482] | 100 to 3000 | 10 to 100 | – | – |
| Cc1cc(C)c2c(N)nc(NC3CCN(Cc4nnc[nH]4)CC3)nc2n1 [Example 483] | 0 to 100 | > 31.6 | – | – |
| Cc1cc(C)c2c(N)nc(NC3CCN(Cc4cccc(C(N)=O)c4)CC3)nc2n1 [Example 484] | 100 to 3000 | 10 to 100 | – | – |
| Cc1cc(C)c2c(N)nc(NC3CCN(Cc4ccc(C(F)F)cc4)CC3)nc2n1 [Example 485] | 100 to 3000 | 1 to 10 | – | – |
| Cc1cc(C)c2c(N)nc(NC3CCN(Cc4ncc[nH]4)CC3)nc2n1 [Example 487] | 100 to 3000 | 1 to 10 | – | – |
| COCc1ccc(CN2CCC(Nc3nc(N)c4c(C)cc(C)nc4n3)CC2)cc1 [Example 488] | 100 to 3000 | 1 to 10 | – | – |
| Cc1cc(C)c2c(N)nc(NC3CCN(Cc4cccc(C(F)F)c4)CC3)nc2n1 [Example 489] | 100 to 3000 | 1 to 10 | – | – |
| Cc1cc(C)c2c(N)nc(NC3CCN(Cc4ccccc4C(F)(F)F)CC3)nc2n1 [Example 490] | 100 to 3000 | 10 to 100 | – | – |
| Cc1cc(C)c2c(N)nc(NC3CCN(Cc4c[nH]cn4)CC3)nc2n1 [Example 491] | 100 to 3000 | 10 to 100 | – | – |
| Cc1cc(C)c2c(N)nc(NC3CCN(Cc4cccc(C(F)(F)F)c4)CC3)nc2n1 [Example 492] | 100 to 3000 | 10 to 100 | – | – |
| Cc1cc(C)c2c(N)nc(NC3CCN(Cc4ccccc4C(F)F)CC3)nc2n1 [Example 493] | 100 to 3000 | 1 to 10 | – | – |

| Compound | Emax [%] | EC (100% of 200 uM G418 response) [µM] | pC100% | Fold Over Control (maximum fold response relative to 200 μM G418) |
| --- | --- | --- | --- | --- |
| COc1cccc(CN2CCC(Nc3nc(N)c4c(C)cc(C)nc4n3)CC2)c1 [Example 494] | 100 to 3000 | 1 to 10 | – | – |
| Cc1cc(C)c2c(N)nc(NC3CCN(Cc4ccc(C(=O)N(C)C)cc4)CC3)nc2n1 [Example 495] | 0 to 100 | > 31.6 | – | – |
| Cc1cc(C)c2c(N)nc(NC3CCN(Cc4cccc(S(C)(=O)=O)c4)CC3)nc2n1 [Example 496] | 100 to 3000 | 10 to 100 | – | – |
| Cc1cc(C)c2c(N)nc(NC3CCN(Cc4ccc(S(C)(=O)=O)cc4)CC3)nc2n1 [Example 497] | 100 to 3000 | 10 to 100 | – | – |
| Cc1cc(C)c2c(N)nc(NC3CCN(Cc4ccccc4S(C)(=O)=O)CC3)nc2n1 [Example 498] | 0 to 100 | > 31.6 | – | – |
| Cc1cc(C)c2c(N)nc(NC3CCN(Cc4cccc(C#N)c4)CC3)nc2n1 [Example 499] | 100 to 3000 | 1 to 10 | – | – |
| Cc1cc(C)c2c(N)nc(NC3CCN(Cc4ccccc4C#N)CC3)nc2n1 [Example 500] | 100 to 3000 | 1 to 10 | – | – |
| Cc1cc(C)c2c(N)nc(NC3CCN(Cc4ccno4)CC3)nc2n1 [Example 501] | 100 to 3000 | 10 to 100 | – | – |
| Cc1cc(C)c2c(N)nc(NC3CCN(Cc4cccnc4)CC3)nc2n1 [Example 504] | 100 to 3000 | 1 to 10 | – | – |
| Cc1cc(C)c2c(N)nc(NC3CCN(Cc4cccc(O)c4)CC3)nc2n1 [Example 506] | 100 to 3000 | 1 to 10 | – | – |
| [2H]C([2H])(c1ccc(C#N)cc1)N1CCC(Nc2nc(N)c3c(C)cc(C)nc3n2)CC1 [Example 507, 4-((4-((4-amino-5,7-dimethylpyrido[2,3-d]pyrimidin-2-yl)amino)piperidin-1-yl)methyl-d2)benzonitrile] | 100 to 3000 | 0.1 to 1 | – | – |
| Cc1cc(C)c2c(N)nc(NC3CCN(Cc4ccc(C#N)cc4C(F)F)CC3)nc2n1 [Example 508, 4-((4-((4-amino-5,7-dimethylpyrido[2,3-d]pyrimidin-2-yl)amino)piperidin-1-yl)methyl)-3-(difluoromethyl)benzonitrile] | 100 to 3000 | 1 to 10 | – | – |
| [2H]C([2H])([2H])Nc1nc(N[C@H]2CN(C)C[C@@H]2O)nc2nc3c(c(C)c12)CCC3 [Example 509, (3S,4S)-1-(methyl-d3)-4-((5-methyl-4-((methyl-da)amino)-7,8-dihydro-6H-cyclopenta[5,6]pyrido[2,3-d]pyrimidin-2-yl)amino)pyrrolidin-3-ol] | – | 0.01 to 0.1 | – | – |
| Cc1c2c(nc3nc(NC4CCNCC4)nc(NCCO)c13)CCC2 [Example 510, 2-((5-methyl-2-(piperidin-4-ylamino)-7,8-dihydro-6H-cyclopenta[5,6]pyrido[2,3-d]pyrimidin-4-yl)amino)ethan-1-ol] | 100 to 3000 | 0.1 to 1 | – | – |
| CC(=O)Nc1cc(C#N)ccc1CN1CCC(Nc2nc(N)c3c(C)cc(C)nc3n2)CC1 [Example 511, N-(2-((4-((4-amino-5,7-dimethylpyrido[2,3-d]pyrimidin-2-yl)amino)piperidin-1-yl)methyl)-5-cyanophenyl)acetamide] | 100 to 3000 | 1 to 10 | – | – |
| [2H]C([2H])([2H])Nc1nc(NC2CCN(C([2H])([2H])[2H])CC2)nc2nc(C)cc(C)c12 [Example 512, 5,7-dimethyl-N^4-(methyl-da)-N^2-(1-(methyl-da)piperidin-4-yl)pyrido[2,3-d]pyrimidine-2,4-diamine] | – | 0.1 to 1 | – | – |
| CNc1nc(N[C@@H]2CCN(C)C2)nc2nc(OC)c(CCO)c(C)c12 [Example 513, (R)-2-(7-methoxy-5-methyl-4-(methylamino)-2-((1-methylpyrrolidin-3-yl)amino)pyrido[2,3-d]pyrimidin-6-yl)ethan-1-ol] | 0 to 100 | > 31.6 | – | – |
| CNc1nc(N[C@@H]2CCN(C)C2)nc2nc3c(c(C)c12)CCO3 [Example 514, (R)—N^4,5-dimethyl-N^2-(1-methylpyrrolidin-3-yl)-6,7-dihydrofuro[3′,2′:5,6]pyrido[2,3-d]pyrimidine-2,4-diamine] | 100 to 3000 | 1 to 10 | – | – |
| CNc1cc(N[C@@H]2CCN(C)C2)nc2nc(C)cc(C)c12 [Example 515, (R)—N^4,5,7-trimethyl-N^2-(1-methylpyrrolidin-3-yl)-1,8-naphthyridine-2,4-diamine] | 100 to 3000 | 1 to 10 | – | – |
| CNc1nc(NC2CC3CCC2N3)nc2nc(C)cc(C)c12 (centres unmarked) [Example 517, N^2-(-7-azabicyclo[2.2.1]heptan-2-yl)-N^4,5,7-trimethylpyrido[2,3-d]pyrimidine-2,4-diamine] | 100 to 3000 | – | ++ (pC100% > 5.0 ≤ 6.0) | – |
| CNc1nc(NC2CC3CCC2N3)nc2nc(C)cc(C)c12 (centres unmarked) [Example 518, N^2-(-7-azabicyclo[2.2.1]heptan-2-yl)-N^4,5,7-trimethylpyrido[2,3-d]pyrimidine-2,4-diamine] | – | – | + (pC100% > 4.0 ≤ 5.0) | ## (Fold over Ctrl > 1 ≤ 30) |
| CNc1nc(N[C@H]2CN(C3CC3)C[C@H]2F)nc2nc(C)cc(C)c12 [Example 519, N^2-((3S,4R)-1-cyclopropyl-4-fluoropyrrolidin-3-yl)-N^4,5,7-trimethylpyrido[2,3-d]pyrimidine-2,4-diamine] | 0 to 100 | > 31.6 | – | – |
| CNc1nc(N[C@H]2CN(C)C[C@@H]2O)nc2nc(C)c(C)c(C)c12 [Example 520, (3S,4S)-1-methyl-4-((5,6,7-trimethyl-4-(methylamino)pyrido[2,3-d]pyrimidin-2-yl)amino)pyrrolidin-3-ol] | 100 to 3000 | 0.1 to 1 | – | – |
| Cc1cc(C2CCC2)nc2nc(NC3CCN(C)CC3)nc(N)c12 [Example 521, 7-cyclobutyl-5-methyl-N^2-(1-methylpiperidin-4-yl)pyrido[2,3-d]pyrimidine-2,4-diamine] | – | 1 to 10 | – | – |
